Measurements taken from US6291671A, “Process for producing drug complexes” (Daiichi Pharmaceutical Co., Ltd., priority 1996, dated 2001).
Structures can show the parent of a compound that is named as a salt. Where two headings read alike, the source gives them in different places. Ends that are not written are not given here. Peptide text beside a SMILES is read from it. * marks the point of attachment. Exatecan = CC[C@@]1(O)C(=O)OCc2c1cc1n(c2=O)Cc2c-1nc1cc(F)c(C)c3c1c2[C@@H](N*)CC3

Tests used:
[1] = tested on: Meth A tumor-bearing mice; test: Antitumor activity, Meth A tumor-bearing mice, single administration on day 7; assay type: in vivo, mouse
Experimental: (§1) Meth A tumor-bearing mice were prepared (7 mice per group) by subcutaneously transplanting 1×10^6 mouse fibrosarcoma Meth A cells into the right inguinal regions of BALB/c male mice (7-week old). On day 7, the drug complex of Example 9 dissolved in distilled water for injection was injected in the tail vein of the Meth A tumor-bearing mice every 4 days 4 times. On day 21 after the transplantation, tumor masses were excised and weighed to calculate the inhibition rate of tumor growth according to the following equation: inhibition rate of tumor growth (%)=[1-(average tumor weight of the group administered with the test sample/average tumor weight of control group)]×100.
Meth A tumor-bearing mice (6 mice per group) were prepared according to a similar manner to that of Example 11 and the antitumor activity was compared to that obtained by single administration of the drug complexes of Examples 8 and 9 once on day 7.
(§2) Meth A tumor-bearing mice (6 mice per group) were prepared according to a similar manner to that of Example 11 and the antitumor activity of the drug complex of Example 15 was examined by single administration in a similar manner to that of Example 12.
as §2, with “1,” for “11”, “41” for “15”, “in the cases of” for “by”, “12, and its antitumor activity was compared to that of the drug compound, per se.” for “12.”
Meth A tumor-bearing mice (6 mice per group) were prepared according to a similar manner to that of Example 11, and the antitumor activity was examined according to a similar method to that in Example 12 by single administration of the drug complexes of Examples 29, 43, and 44, respectively.

[2] = tested on: Meth A tumor-bearing mice; test: Antitumor activity, Meth A tumor-bearing mice, i.v. every 4 days 4 times; assay type: in vivo, mouse; details: for Inhibition rate: calculated based on the drug compound, day 21
Experimental: as §1

[3] = tested on: Walker 256 tumor-bearing rats; test: Releasing rate of spacers judged from efficacy of doxorubicin drug complexes or free doxorubicin at tumorous sites; assay type: in vivo, rat; details: drug complexes bound with doxorubicin, Walker 256 tumor-bearing rats
Text: Specific examples of the spacer are shown in the following table; however, the spacer used for the method for preparing the drug complexes of the present invention is not limited to those mentioned below, and it can be readily understood that one of ordinary skilled in the art can appropriately choose a spacer so as to achieve an optimum releasing rate of a drug compound. In the table, the left ends of peptide sequences are N-terminuses and the residues of drug compounds are bound to C-terminuses.D-Phe represents a D-phenylalanine residue and the other amino acids represent L-amino acids. The degrees of the releasing rate were judged from the degree of appearance of efficacy of the drug complexes bound with doxorubicin against Walker 256 tumor-bearing rats, or from the free doxorubicin concentration at tumorous sites of Walker 256 tumor-bearing rats.

SC-6 human gastric tumor = test: Antitumor activity, SC-6 tumor-bearing nude mice, single i.v. administration; assay type: in vivo, human tumor in nude mice; details: for Inhibition rate / Numbers of died mice/mice used: calculated based on the drug compound
Experimental: (§3) SC-6 tumor-bearing nude mice (5 mice per group) were prepared by subcutaneously transplanting a piece of SC-6 human gastric tumor block into the right inguinal regions of nude mice (13AI,B/c-nu/nu, male). On day 27 after the transplantation, the drug complex of Example 15 dissolved in distilled water for injection was given as a single intravenous administration and its antitumor activity was compared to that of the drug compound, per se.

[4] = tested on: Meth A tumor-bearing mice; test: Pharmacokinetics of the drug complex in Meth A tumor-bearing mice; assay type: in vivo, mouse; details: 10 mg/kg single, calculated as the drug compound
Experimental: Meth A tumor-bearing mice were prepared according to a similar manner to that of Example 11, the drug complex of Example 15 was given as single administration in a similar manner to that of Example 12 (10 mg/kg: calculated as the drug compound), and the change of the drug complex concentration in various tissues was determined.

Human lung cancer QG-90 = test: Antitumor activity, human lung cancer QG-90-bearing nude mice, single i.v. administration; assay type: in vivo, human tumor in nude mice; details: for Inhibition rate / Numbers of died mice/mice used: calculated based on the drug compound
Experimental: as §3
Human lung cancer QG-90-bearing nude mice (5 mice per group) were prepared according to a similar manner to that of Example 53. On day 16 after the transplantaion, the drug complex of Example 15 dissolved in distilled water for injection was given as a single intravenous administration and its antitumor activity was compared to that of the drug compound, per se.

[5] = cited from earlier work
[6] = single administration, compared to the drug compound, per se
[7] = Example 11, every 4 days 4 times
[8] = single i.v., compared to the drug compound, per se

For “Carboxymethyldextran Polyalcohol-Gly-Gly-Phe-Gly-NH--A' (A--NH2 =DX-8951) [Example 9] ({carboxymethyldextran polyalcohol}-GGFG-Exatecan; also: N-terminus linked to carboxymethyldextran polyalcohol, C-terminus amide-linked to drug residue A' (DX-8951))”, the Inhibition rate ([1]; Example 12 (Table 3), 2.5 mg/kg single, calculated based on the drug compound) was 87%, the Inhibition rate ([1]; Example 12 (Table 3), 5 mg/kg single, calculated based on the drug compound) was 98% and the “antitumor activity (in words)” value [1, 6] was “(Polysaccharide derivative)-Gly-Gly-Phe-Gly-NH--A'> (Polysaccharide derivative)-Gly-Gly-Gly-Phe-NH--A'> the drug compound, per se”. It also gave an Inhibition rate ([2]; 0.35 × 4 mg/kg) of 41%, an Inhibition rate ([2]; 0.7 × 4 mg/kg) of 59% and an Inhibition rate ([2]; 1.4 × 4 mg/kg) of 94%. For the same compound, the “antitumor activity (in words)” value [2, 7] was “remarkably enhanced antitumor activity compared to the drug compound, per se” and the “toxicity (weight loss)” value [2, 7] was “no toxicity (weight loss)”.

In the case of “-Gly-Gly-Phe-Phe-: spacer of drug complexes bound with doxorubicin (GGFF; not fully specified; printed as -Gly-Gly-Phe-Phe-; also: spacer between polysaccharide derivative and drug in drug complex)”, the “releasing rate of spacer” value [3] is reported as “relatively high releasing rate”.

In the case of “Carboxymethyldextran Polyalcohol-Gly-Gly-Phe-Gly-NH--A' (A--NH2 =DX-8951) [Example 15] ({carboxymethyldextran polyalcohol}-GGFG-Exatecan; also: N-terminus linked to carboxymethyldextran polyalcohol, C-terminus amide-linked to drug residue A' (DX-8951))”, the Inhibition rate ([1]; Example 52 (table 4), 1.25 mg/kg single, calculated based on the drug compound) is reported as 83%, the Inhibition rate ([1]; Example 52 (table 4), 2.5 mg/kg single, calculated based on the drug compound) is reported as 95% and the Inhibition rate ([1]; Example 52 (table 4), 5 mg/kg single, calculated based on the drug compound) is reported as 99%. The Inhibition rate ([1]; Example 52 (table 4), 10 mg/kg single, calculated based on the drug compound) was 100%, the “antitumor activity (in words)” value [1, 6] was “remarkably enhanced antitumor activity” and the “effective dose-range (in words)” value [1, 6] was “broader effective dose-range”. For the same compound, the Inhibition rate (SC-6 human gastric tumor; 2 mg/kg single i.v.) was 71%, the “Numbers of died mice/mice used” value (SC-6 human gastric tumor; 2 mg/kg single i.v.) was 0/5 and the Inhibition rate (SC-6 human gastric tumor; 8 mg/kg single i.v.) was 100%. The “Numbers of died mice/mice used” value (SC-6 human gastric tumor; 8 mg/kg single i.v.) was 0/5, the “death due to toxicity (in words)” value (SC-6 human gastric tumor; single i.v.) was “no death due to toxicity” and the “antitumor activity (in words)” value (SC-6 human gastric tumor; [8]) was “higher antitumor activity compared to the drug compound, per se”. For the same compound, the “distribution in tumor tissues” value [4] was “high distribution in tumor tissues”, the “retention of blood level” value [4] was “extremely long retention of blood level” and the “tumor selectivity against liver and small intestine” value [4] was “high tumor selectivity against liver and small intestine”. For the same compound, the Inhibition rate (Human lung cancer QG-90; 1.75 mg/kg single i.v.) was 97%, the “Numbers of died mice/mice used” value (Human lung cancer QG-90; 1.75 mg/kg single i.v.) was 0/5 and the Inhibition rate (Human lung cancer QG-90; 7 mg/kg single i.v.) was 98%. The “Numbers of died mice/mice used” value (Human lung cancer QG-90; 7 mg/kg single i.v.) was 0/5, the “antitumor activity (in words)” value (Human lung cancer QG-90; [8]) was “remarkably enhanced antitumor activity” and the “effective dose-range (in words)” value (Human lung cancer QG-90; [8]) was “broader effective dose-range”.

With “-Phe-Phe-Gly-Gly-: spacer of drug complexes bound with doxorubicin (FFGG; not fully specified; printed as -Phe-Phe-Gly-Gly-; also: spacer between polysaccharide derivative and drug in drug complex)” the “releasing rate of spacer” value [3] was “high releasing rate”.

With -Phe-Phe- the “releasing rate of spacer” value [3] was “relatively low releasing rate”.

For -Gly-Gly-Gly-, the “releasing rate of spacer” value [3] was “low releasing rate”.

In the case of -Ala-Gly-, the “releasing rate of spacer” value [3] is reported as “relatively low releasing rate”.

In the case of -Gly-Gly-, the “releasing rate of spacer” value [3] is reported as “low releasing rate”.

With “-Gly-Gly-Gly-Phe-: spacer of drug complexes bound with doxorubicin (GGGF; not fully specified; printed as -Gly-Gly-Gly-Phe-; also: spacer between polysaccharide derivative and drug in drug complex)” the “releasing rate of spacer” value [3] was “relatively low releasing rate”.

With “-Gly-Gly-Gly-Gly-: spacer of drug complexes bound with doxorubicin (GGGG; not fully specified; printed as -Gly-Gly-Gly-Gly-; also: spacer between polysaccharide derivative and drug in drug complex)” the “releasing rate of spacer” value [3] was “low releasing rate”.

For -Ser-Gly-, the “releasing rate of spacer” value [3] was “low releasing rate”.

With “-Gly-Phe-Gly-Gly-: spacer of drug complexes bound with doxorubicin (GFGG; not fully specified; printed as -Gly-Phe-Gly-Gly-; also: spacer between polysaccharide derivative and drug in drug complex)” the “releasing rate of spacer” value [3] was “high releasing rate”.

In the case of `CC[C@@]1(O)C(=O)OCc2c1cc1n(c2=O)Cc2c-1nc1cc(F)c(C)c3c1c2[C@@H](NC(=O)CNC(=O)[C@H](Cc1ccccc1)NC(=O)CNC(=O)CN)CC3` [H)N-Gly-Gly-Phe-Gly-NH--A, 3'-N-(Gly-Gly-Phe-Gly)-NH--A (A--NH2 =DX-8951) Trifluoroacetic Acid Salt] (H-GGFG-Exatecan), the “antitumor activity (in words)” value [2, 7] is reported as “not effective”.

In the case of “-Phe-Gly-Gly-Gly-: spacer of drug complexes bound with doxorubicin (FGGG; not fully specified; printed as -Phe-Gly-Gly-Gly-; also: spacer between polysaccharide derivative and drug in drug complex)”, the “releasing rate of spacer” value [3] is reported as “high releasing rate”.

For `CC[C@@]1(O)C(=O)OCc2c1cc1n(c2=O)Cc2c-1nc1cc(F)c(C)c3c1c2[C@@H](N)CC3` [DX-8951, (1S,9S)-1-amino-9-ethyl-5-fluoro-2,3-dihydro-9-hydroxy-4-methyl-1H,12H-benzo[de]pyrano[3',4':6,7]indolizino[1,2-b]quinoline-10,13(9H,15H)-dione, reference compound], the lactone ring equilibrium ([5]; acidic aqueous medium, approximately at pH 3) is listed as “compound whose lactone ring is closed”, the lactone ring equilibrium ([5]; basic aqueous medium, approximately at pH 10) is listed as “compound whose lactone ring is opened” and the Inhibition rate ([1]; Example 12 (Table 3), 20 mg/kg single) is listed as 59%. For the same compound, the Inhibition rate ([1]; Example 12 (Table 3), 60 mg/kg single) was 77%.
